In brackets after ≈: the same amount, converted by molar mass.

What all share (assay type): functional
For assay [1], the system named is L1210. The assay can be described thus: In vitro cytotoxicity against L1210 cells at a dose 50 ug/mL. The following applies: Mus musculus, read-out: Survival.
Assay [2] concerns L1210. The assay can be described thus: In vitro cytotoxicity against L1210 cells at a dose 10 ug/mL. The following applies: Mus musculus, read-out: Survival.
The subject of another assay is Vero. The assay can be described thus: In vitro antiviral activity against herpes simplex virus type-1 in vero cells. The following applies: Chlorocebus sabaeus, read-out: ID50 (the source's name).
In assay [3] the test system is L1210. In words: Effective dose against L1210 cells. As to conditions: Mus musculus, read-out: ED50 (the source's name).

On to `O=c1[nH]c(=O)n([C@H]2C[C@H](O)[C@@H](CO)O2)cc1C(Br)C(O)I.O=c1[nH]c(=O)n([C@H]2C[C@H](O)[C@@H](CO)O2)cc1C(O)C(Br)I` (stereo partly specified), for which, in the assay on L1210 [1], the viability at 50 µg/mL turned out to be 40.1%. The viability at 10 µg/mL in the assay with L1210 [2] turned out to be 79.2%. For the same molecule, in the assay on Vero, the IC50 was over 10 µg/mL.
As for `COC(CCl)c1cn([C@H]2C[C@H](O)[C@@H](CO)O2)c(=O)[nH]c1=O` (stereo partly specified), in the assay on L1210 [1], the viability at 50 µg/mL turned out to be 38.8%. Besides, the viability at 10 µg/mL with L1210 [2] was 75%. For the same molecule, in the assay on Vero, the IC50 was over 10 µg/mL.
As to `COC(CBr)c1cn([C@H]2C[C@H](O)[C@@H](CO)O2)c(=O)[nH]c1=O` (stereo partly specified), the viability at 50 µg/mL in the assay with L1210 [1] is 11.7%. Further, the viability at 10 µg/mL with L1210 [2] was 80.8%. The IC50 with Vero was determined as 0.1 µg/mL (≈ 0.274 µM).
The like results for `O=c1[nH]c(=O)n([C@H]2C[C@H](O)[C@@H](CO)O2)cc1C(O)CCl` (stereo partly specified) were, in that order, 24.3%, 74% and 0.1 µg/mL (≈ 0.326 µM).
The like results for `O=c1[nH]c(=O)n([C@H]2C[C@H](O)[C@@H](CO)O2)cc1C(O)CBr` (stereo partly specified) were, in that order, 23.7%, 65.5% and over 10 µg/mL.
Consider `CCOC(=O)C(Br)C(O)c1cn([C@H]2C[C@H](O)[C@@H](CO)O2)c(=O)[nH]c1=O` (stereo partly specified), for which the viability at 50 µg/mL with L1210 [1] is 4.9%. The EC50 with L1210 [3] was 11 µg/mL (≈ 26 µM). The viability at 10 µg/mL in the assay on L1210 [2] worked out at 49.7%. In the assay with Vero, the IC50 worked out at 1 µg/mL (≈ 2.36 µM).
In the case of `CCOC(=O)C(I)C(O)c1cn([C@H]2C[C@H](O)[C@@H](CO)O2)c(=O)[nH]c1=O` (stereo partly specified), in the assay with L1210 [1], the viability at 50 µg/mL worked out at 10.4%. The viability at 10 µg/mL in the assay with L1210 [2] came to 73.2%. For the same molecule, in the assay on Vero, the IC50 turned out to be 0.1 µg/mL (≈ 0.213 µM).
Take `Nc1nc2c(ncn2COCCO)c(=O)[nH]1` [ACYCLOVIR]: in the assay on Vero, the IC50 turned out to be 0.01 µg/mL (≈ 0.0444 µM).
`N[C@@H](Cc1ccc(N(CCCl)CCCl)cc1)C(=O)O` [MELPHALAN]: in the assay with L1210 [1], the viability at 50 µg/mL worked out at 0%. For the same molecule, the EC50 with L1210 [3] was 0.15 µg/mL (≈ 0.491 µM). The viability at 10 µg/mL in the assay with L1210 [2] is 2.8%.

For the origin of these results see ChEMBL document CHEMBL1124466, “Synthesis of 5-[1-hydroxy(or methoxy)-2-bromo(or chloro)ethyl]-2'-deoxyuridines and related halohydrin analogues with antiviral and cytotoxic activity” (1989).
